Tested on: SW 1271 complex tumor spheroid viability
Experiment: Anticancer human tumor SW 1271 cell line growth inhibition;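 note: spheroids exposed to agents for seven days before readout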;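 for viability, T/C: percent of DMSO vehicle control luminescence so 100% = vehicle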
Settings: for viability, T/C: stronger effect = lower value; active = viability on the fitted dose curve at most 10% of control; inactive = the rest
Text: Multicellular complex tumor spheroid response to DNA repair inhibitors in combination with DNA-damaging drugs
This study explores the anticancer activities of DNA-damaging drugs and inhibitors of DNA damage repair, both as single agents and in combinations. Complex tumor spheroids comprised of malignant cells, endothelial cells and mesenchymal stem cells served as an in vitro model for human solid tumors. This model system incorporates physiologically relevant features and patient-derived or established malignant cell lines with clinically relevant genetic alterations from many tumor types. Twenty-six patient-derived or established malignant cell lines were evaluated representing sarcoma, melanoma, small cell lung cancer (SCLC), non-small cell lung cancer (NSCLC), as well as bladder, ovarian and pancreatic cancers. The concentration ranges selected for each drug and investigational agent were based upon clinically achievable concentrations if the clinical Cmax of the agent was known.
Compounds. The drugs and compounds olaparib (NSC753686), talazoparib (NSC767125), berzosertib (NSC777718), elimusertib (NSC800525), nedisertib (NSC802822), VX-984 (NSC792969), AZD-1390 (NSC803789), temozolomide (NSC362856), topotecan (NSC609699), trabectedin (NSC813783), staurosporine (NSC755774), and gemcitabine (NSC613327) were obtained from the National Cancer Institute (NCI) Developmental Therapeutics Program Chemical Repository. The FDA-approved anticancer drug set is available from the Developmental Therapeutics Program at https://dtp.cancer.gov/organization/dscb/obtaining/available_plates.htm. […] The stock solutions were prepared in dimethyl sulfoxide (DMSO, Sigma-Aldrich, St. Louis, MO, cat. D2650) at 400-fold the tested concentration and stored at -70 degrees C. Prior to their use, the stock solutions were diluted in fresh medium and the final DMSO concentration in the assay was 0.25% (v/v). All drugs and investigational agents were tested over a range starting from a high concentration at or near the clinical Cmax and decreasing in half-log increments. If the clinical Cmax for an agent had not been determined, the highest concentration tested was 10 microM.
Cell Lines. The patient-derived cancer cell (PDC) lines: 156681-154-R-J1-PDC, 283228-195-R-J1-PDC, 287954-098-R-J1-PDC, 292921-168-R-J2-PDC, 349418-098-R-PDC, 425362-245-T-J1-PDC, 556581-035-R-J1-PDC, and BL0293-F563-PDC were received from the NCI Patient-Derived Models Repository (PDMR, https://pdmr.cancer.gov). The established cell lines HS-SY-2 (RRID:CVCL_8719), MPNST, and SYO-1 (RRID:CVCL_7146) were obtained from the Sloan Kettering Institute. The alveolar soft parts sarcoma cell line ASPS-1 (RRID:CVCL_S738) was established at the NCI and grown from internal seed stocks. The following established cell lines were purchased from the American Type Culture Collection (ATCC, Manassas, VA): G-401 (ATCC, cat. CRL-1441, RRID:CVCL_0270), SW982 (ATCC, cat. HTB-93, RRID:CVCL_1734), VA-ES-BJ (ATCC, cat. CRL-2138, RRID:CVCL_1785), NCI-H719 (ATCC, cat. CRL-5837, RRID:CVCL_1582), NCI-H196 (ATCC, cat. CRL-5823, RRID:CVCL_1509), NCI-H841 (ATCC, cat. CRL-5845, RRID:CVCL_1595), NCI-H1618 (ATCC, cat. CRL-5879, RRID:CVCL_1480), NCI-H1876 (ATCC, cat. CRL-5902, RRID:CVCL_1503), DMS 114 (ATCC, cat. CRL-2066; RRID:CVCL_1174), NCI-H211 (ATCC, cat. CRL-5824; RRID:CVCL_1529), and SW 1271 (ATCC, cat. CRL-2177, RRID:CVCL_1716). The small cell lung cancer cell line COR-L88 was purchased from Sigma-Aldrich (cat. 92031917-1VL, RRID:CVCL_1141). The non-small cell lung cancer cell lines NCI-H226 (RRID:CVCL_1544) and NCI-H322M (RRID:CVCL_1557) were established at the NCI and grown from internal seed stocks. Pooled donor human umbilical vein endothelial cells (HUVEC, Lonza, cat. CC-2519) and human mesenchymal stem cells (hMSC, Lonza, cat. PT-2501) were purchased from Lonza (Walkersville, MD).
Cell Culture. All cells were maintained in an incubator at 37 degrees C and 5% CO2 with 95% humidity. […]

[1] = curve of first compound, second compound 0.003 µM
[2] = curve of first compound, second compound 0.00949 µM
[3] = curve of first compound, second compound 0.03 µM
[4] = curve of first compound, second compound 0.0949 µM
[5] = curve of first compound, second compound 0.3 µM
[6] = second compound 0.003 µM, first compound 0.0316 µM
[7] = second compound 0.003 µM, first compound 0.1 µM
[8] = second compound 0.003 µM, first compound 0.316 µM
[9] = second compound 0.003 µM, first compound 1 µM
[10] = second compound 0.003 µM, first compound 3.16 µM
[11] = second compound 0.003 µM, first compound 10 µM
[12] = second compound 0.00949 µM, first compound 0.0316 µM
[13] = second compound 0.00949 µM, first compound 0.1 µM
[14] = second compound 0.00949 µM, first compound 0.316 µM
[15] = second compound 0.00949 µM, first compound 1 µM
[16] = second compound 0.00949 µM, first compound 3.16 µM
[17] = second compound 0.00949 µM, first compound 10 µM
[18] = second compound 0.03 µM, first compound 0.0316 µM
[19] = second compound 0.03 µM, first compound 0.1 µM
[20] = second compound 0.03 µM, first compound 0.316 µM
[21] = second compound 0.03 µM, first compound 1 µM
[22] = second compound 0.03 µM, first compound 3.16 µM
[23] = second compound 0.03 µM, first compound 10 µM
[24] = second compound 0.0949 µM, first compound 0.0316 µM
[25] = second compound 0.0949 µM, first compound 0.1 µM
[26] = second compound 0.0949 µM, first compound 0.316 µM
[27] = second compound 0.0949 µM, first compound 1 µM
[28] = second compound 0.0949 µM, first compound 3.16 µM
[29] = second compound 0.0949 µM, first compound 10 µM
[30] = second compound 0.3 µM, first compound 0.0316 µM
[31] = second compound 0.3 µM, first compound 0.1 µM
[32] = second compound 0.3 µM, first compound 0.316 µM
[33] = second compound 0.3 µM, first compound 1 µM
[34] = second compound 0.3 µM, first compound 3.16 µM
[35] = second compound 0.3 µM, first compound 10 µM

COc1cc(C)[nH]c(=O)c1CN1CCc2c(Cl)cc(C(OC)C3COC3)c(Cl)c2C1=O (stereo unspecified) + Cn1nnc2c(C(N)=O)ncn2c1=O
> 10000 nM: IC50 (curve of first compound, second compound 1 µM) | IC50 (curve of first compound, second compound 3.16 µM) | IC50 (curve of first compound, second compound 10 µM) | IC50 (curve of first compound, second compound 31.6 µM) | IC50 (curve of first compound, second compound 100 µM)
inactive: viability, T/C (second compound 1 µM, first compound 0.0316 µM) 92.5% | viability, T/C (second compound 1 µM, first compound 0.1 µM) 90.5% | viability, T/C (second compound 1 µM, first compound 0.316 µM) 91.2% | viability, T/C (second compound 1 µM, first compound 1 µM) 86.1% | viability, T/C (second compound 1 µM, first compound 3.16 µM) 77.5% | viability, T/C (second compound 1 µM, first compound 10 µM) 76.7% | viability, T/C (second compound 3.16 µM, first compound 0.0316 µM) 98.1% | viability, T/C (second compound 3.16 µM, first compound 0.1 µM) 90.2% | viability, T/C (second compound 3.16 µM, first compound 0.316 µM) 90.3% | viability, T/C (second compound 3.16 µM, first compound 1 µM) 94.4% | viability, T/C (second compound 3.16 µM, first compound 3.16 µM) 85% | viability, T/C (second compound 3.16 µM, first compound 10 µM) 82.3% | viability, T/C (second compound 10 µM, first compound 0.0316 µM) 98.2% | viability, T/C (second compound 10 µM, first compound 0.1 µM) 93.5% | viability, T/C (second compound 10 µM, first compound 0.316 µM) 96.1% | viability, T/C (second compound 10 µM, first compound 1 µM) 83.8% | viability, T/C (second compound 10 µM, first compound 3.16 µM) 87.8% | viability, T/C (second compound 10 µM, first compound 10 µM) 81.4% | viability, T/C (second compound 31.6 µM, first compound 0.0316 µM) 97.1% | viability, T/C (second compound 31.6 µM, first compound 0.1 µM) 89.8% | viability, T/C (second compound 31.6 µM, first compound 0.316 µM) 99.3% | viability, T/C (second compound 31.6 µM, first compound 1 µM) 100% | viability, T/C (second compound 31.6 µM, first compound 3.16 µM) 88.5% | viability, T/C (second compound 31.6 µM, first compound 10 µM) 80.2% | viability, T/C (second compound 100 µM, first compound 0.0316 µM) 88.7% | viability, T/C (second compound 100 µM, first compound 0.1 µM) 96.3% | viability, T/C (second compound 100 µM, first compound 0.316 µM) 84.2% | viability, T/C (second compound 100 µM, first compound 1 µM) 80.7% | viability, T/C (second compound 100 µM, first compound 3.16 µM) 77.3% | viability, T/C (second compound 100 µM, first compound 10 µM) 76.1%

Cc1cc(C)c(CNC(=O)c2cc(-c3ccc(CN4CCOCC4)cc3)cc3c2cnn3C2CCCC2)c(=O)[nH]1 + CC[C@@]1(O)C(=O)OCc2c1cc1n(c2=O)Cc2cc3c(CN(C)C)c(O)ccc3nc2-1
< 31.6 nM: IC50 [3] | IC50 [4] | IC50 [5]
32.9 nM: IC50 [2]
active: viability, T/C [33] 9.77% | viability, T/C [34] 6.12% | viability, T/C [35] 4.56%
2120 nM: IC50 [1]
inactive: viability, T/C [6] 83.2% | viability, T/C [7] 84.7% | viability, T/C [8] 70.6% | viability, T/C [9] 59.8% | viability, T/C [10] 45.5% | viability, T/C [11] 34.9% | viability, T/C [12] 51.3% | viability, T/C [13] 38.2% | viability, T/C [14] 32.5% | viability, T/C [15] 26.9% | viability, T/C [16] 20.4% | viability, T/C [17] 16.3% | viability, T/C [18] 28.2% | viability, T/C [19] 26.4% | viability, T/C [20] 24.4% | viability, T/C [21] 27% | viability, T/C [22] 24.9% | viability, T/C [23] 22.4% | viability, T/C [24] 30.7% | viability, T/C [25] 27% | viability, T/C [26] 27.7% | viability, T/C [27] 25.6% | viability, T/C [28] 23.5% | viability, T/C [29] 22.6% | viability, T/C [30] 15.7% | viability, T/C [31] 12.8% | viability, T/C [32] 11%

CC[C@@]1(O)C(=O)OCc2c1cc1n(c2=O)Cc2cc3c(CN(C)C)c(O)ccc3nc2-1
8.96 nM [middle of 5 runs]: IC50 (compound alone, run of 11/07/2019)
11.7 nM [middle of 5 runs]: IC50 (compound alone, run of 12/16/2019)
inactive: viability, T/C (compound 0.003 µM) 88.3% [middle of 10 runs] | viability, T/C (compound 0.03 µM) 28.2% [middle of 10 runs] | viability, T/C (compound 0.0949 µM) 27.2% [middle of 10 runs] | viability, T/C (compound 0.3 µM) 16.7% [middle of 10 runs]

CC1COCCN1c1cc(-c2ccnn2C)c2ccnc(-c3ccn[nH]3)c2n1 (stereo unspecified) + CC[C@@]1(O)C(=O)OCc2c1cc1n(c2=O)Cc2cc3c(CN(C)C)c(O)ccc3nc2-1
< 31.6 nM: IC50 [1] | IC50 [2] | IC50 [3] | IC50 [4] | IC50 [5]
inactive: viability, T/C [6] 26% | viability, T/C [7] 11.3%
active: viability, T/C [8] 4.59% | viability, T/C [9] 2.3% | viability, T/C [10] 1.84% | viability, T/C [11] 1.92% | viability, T/C [12] 6.62% | viability, T/C [13] 4.56% | viability, T/C [14] 3.33% | viability, T/C [15] 2.14% | viability, T/C [16] 1.49% | viability, T/C [17] 1.95% | viability, T/C [18] 6.54% | viability, T/C [19] 4.67% | viability, T/C [20] 3.37% | viability, T/C [21] 2.33% | viability, T/C [22] 1.73% | viability, T/C [23] 1.79% | viability, T/C [24] 8.42% | viability, T/C [25] 6.2% | viability, T/C [26] 4.79% | viability, T/C [27] 2.58% | viability, T/C [28] 1.54% | viability, T/C [29] 1.64% | viability, T/C [30] 5.08% | viability, T/C [31] 3.04% | viability, T/C [32] 2.79% | viability, T/C [33] 2.96% | viability, T/C [34] 1.02% | viability, T/C [35] 0.73%
